In article PMC9120017, “Inhibition mechanism of the chloride channel TMEM16A by the pore blocker 1PBC” (Nature Communications, 2022):
Like-named read-outs stand apart in the source and are kept apart here.

Biological target: T1, mouse TMEM16A mutant K603Q (Mus musculus, UniProt Q8BHY3, K603Q)
T1 construct: expressed in transfected cells; host or cells: HEK293T
T1 sequence (Q8BHY3 1-960 K603Q): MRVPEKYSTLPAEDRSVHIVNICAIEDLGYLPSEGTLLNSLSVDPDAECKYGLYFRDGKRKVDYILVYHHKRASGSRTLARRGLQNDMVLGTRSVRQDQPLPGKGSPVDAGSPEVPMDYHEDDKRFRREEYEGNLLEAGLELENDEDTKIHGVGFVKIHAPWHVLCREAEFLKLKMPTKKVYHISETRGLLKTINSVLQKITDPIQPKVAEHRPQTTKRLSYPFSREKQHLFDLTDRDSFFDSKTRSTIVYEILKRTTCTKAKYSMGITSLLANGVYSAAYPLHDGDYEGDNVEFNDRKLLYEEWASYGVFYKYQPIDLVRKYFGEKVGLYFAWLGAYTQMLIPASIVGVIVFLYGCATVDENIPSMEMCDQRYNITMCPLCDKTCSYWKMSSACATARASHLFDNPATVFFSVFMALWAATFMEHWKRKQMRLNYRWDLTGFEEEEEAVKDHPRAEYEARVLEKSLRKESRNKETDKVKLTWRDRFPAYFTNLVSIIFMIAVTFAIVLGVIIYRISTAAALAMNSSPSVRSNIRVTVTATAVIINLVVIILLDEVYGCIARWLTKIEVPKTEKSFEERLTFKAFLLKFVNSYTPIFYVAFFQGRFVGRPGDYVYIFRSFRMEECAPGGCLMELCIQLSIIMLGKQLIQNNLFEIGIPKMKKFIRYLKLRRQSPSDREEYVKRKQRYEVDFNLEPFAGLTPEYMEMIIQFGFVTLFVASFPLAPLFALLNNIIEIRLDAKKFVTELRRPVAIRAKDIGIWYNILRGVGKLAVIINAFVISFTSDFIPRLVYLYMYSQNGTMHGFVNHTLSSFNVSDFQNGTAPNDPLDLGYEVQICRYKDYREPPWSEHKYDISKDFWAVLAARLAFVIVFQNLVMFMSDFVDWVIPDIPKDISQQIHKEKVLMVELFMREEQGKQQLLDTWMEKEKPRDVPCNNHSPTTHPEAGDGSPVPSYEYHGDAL
Experiment: Inside-out patch recording of 1PBC block, mutant K603Q
Format: cell-based
Description: HEK293T cells (ATCC CRL-1573) were maintained in Dulbecco’s modified Eagle’s medium (DMEM; Sigma-Aldrich) supplemented with 10 U ml^−1 penicillin, 0.1 mg ml^−1 streptomycin (Sigma-Aldrich), 2 mM L-glutamine (Sigma-Aldrich), and 10% FBS (Sigma-Aldrich) in a humidified atmosphere containing 5% CO2 at 37 °C. HEK293S GnTI^− cells (ATCC CRL-3022) were maintained in HyClone HyCell TransFx-H medium (GE Healthcare) supplemented with 10 U ml^−1 penicillin, 0.1 mg ml^−1 streptomycin, 4 mM L-glutamine, 0.15% poloxamer 188 (Sigma-Aldrich), and 1% FBS in an atmosphere containing 5% CO2 at 185 rpm at 37 °C. The ac splice variant of mouse TMEM16A (UniProt ID: Q8BHY3), mouse TMEM16B (UniProt ID: Q8CFW1), or mouse TMEM16F (UniProt ID: Q6P9J9) bearing a 3C cleavage site, a Venus YFP, a Myc tag, and a Streptavidin-binding peptide (SBP) downstream of the open reading frame in a modified pcDNA3.1 vector (Invitrogen) were used as described previously[21],[31]. Mutations were introduced using a modified QuikChange method[58] and were verified by sequencing.
HEK293T cells were transfected with 3–4 μg DNA per 6 cm Petri dish using the calcium phosphate co-precipitation method and were used within 24–96 h after transfection. Recordings were performed on inside-out patches excised from HEK293T cells expressing the construct of interest. Patch pipettes were pulled from borosilicate glass capillaries (O.D. 1.5 mm, I.D. 0.86 mm, Sutter Instrument) and were fire-polished with a microforge (Narishige) before use. Pipette resistance was typically 3–8 MΩ when filled with the recording solutions detailed below. Seal resistance was typically 4 GΩ or higher. Voltage-clamp recordings were made using Axopatch 200B, Digidata 1550, and Clampex 10.7 (Molecular Devices). Analog signals were filtered with the in-built 4-pole Bessel filter at 10 kHz and were digitized at 20 kHz. Solution exchange was achieved using a gravity-fed system through a theta glass pipette mounted on an ultra-fast piezo-driven stepper (Siskiyou). […] All recordings were performed at 20 °C.
A symmetrical ionic condition was used throughout. Stock solution with Ca^2+-EGTA contained 150 mM NaCl, 5.99 mM Ca(OH)2, 5 mM EGTA, and 10 mM HEPES at pH 7.40. Stock solution with EGTA contained 150 mM NaCl, 5 mM EGTA, and 10 mM HEPES at pH 7.40. Free Ca^2+ concentrations were adjusted by mixing the stock solutions at the required ratios calculated using the WEBMAXC program (http://web.stanford.edu/~cpatton/webmaxcS.htm). Patch pipettes were filled with the stock solution with Ca^2+-EGTA, which has a free Ca^2+ concentration of 1 mM. 1PBC (ChemBridge) stock was reconstituted in anhydrous DMSO (Sigma-Aldrich) at 100 mM and stored at −20 °C. Working solutions with 1PBC were prepared by serial dilution. Unless otherwise stated, experiments were performed at a saturating Ca^2+ concentration as shown in Supplementary Table 1 and the primary data were corrected for current rundown as described previously[21],[25].
Concentration-response relations, obtained from the ratio of the I-V plots before and after the application of the blocker, were fitted to the Hill equation,1 I/Imax=1/1+IC50/[blocker]^h where I/Imax is the normalized current responses, IC50 defines the concentration at which inhibition is at its half-maximum, and h is the Hill coefficient.

IC50 (0 mV, 4 µM Ca2+): 193 µM
remaining activity at 10 µM (0 mV, 1PBC conc 10, read-out: relative current in 1PBC (avr)): 94.4%
remaining activity at 30 µM (0 mV, 1PBC conc 30, read-out: relative current in 1PBC (avr)): 85.8%
remaining activity at 100 µM (0 mV, 1PBC conc 100, read-out: relative current in 1PBC (avr)): 66.3%
remaining activity at 10 µM (10 µM 1PBC, +80 mV, saturating Ca2+ (4 µM), read-out: I/Imax): 95.1%
remaining activity at 10 µM (10 µM 1PBC, -80 mV, saturating Ca2+ (4 µM), read-out: I/Imax): 92.8%
remaining activity at 30 µM (30 µM 1PBC, +80 mV, saturating Ca2+ (4 µM), read-out: I/Imax): 87%
remaining activity at 30 µM (30 µM 1PBC, -80 mV, saturating Ca2+ (4 µM), read-out: I/Imax): 86.9%
remaining activity at 100 µM (100 µM 1PBC, +80 mV, saturating Ca2+ (4 µM), read-out: I/Imax): 65.4%
remaining activity at 100 µM (100 µM 1PBC, -80 mV, saturating Ca2+ (4 µM), read-out: I/Imax): 66.1%
IC50 (20 mV, 4 µM Ca2+): 206 µM
remaining activity at 10 µM (20 mV, 1PBC conc 10, read-out: relative current in 1PBC (avr)): 96.5%
remaining activity at 30 µM (20 mV, 1PBC conc 30, read-out: relative current in 1PBC (avr)): 87.2%
remaining activity at 100 µM (20 mV, 1PBC conc 100, read-out: relative current in 1PBC (avr)): 67.1%
IC50 (40 mV, 4 µM Ca2+): 190 µM
remaining activity at 10 µM (40 mV, 1PBC conc 10, read-out: relative current in 1PBC (avr)): 94.6%
remaining activity at 30 µM (40 mV, 1PBC conc 30, read-out: relative current in 1PBC (avr)): 87.4%
remaining activity at 100 µM (40 mV, 1PBC conc 100, read-out: relative current in 1PBC (avr)): 65%
IC50 (60 mV, 4 µM Ca2+): 196 µM
remaining activity at 10 µM (60 mV, 1PBC conc 10, read-out: relative current in 1PBC (avr)): 95%
remaining activity at 30 µM (60 mV, 1PBC conc 30, read-out: relative current in 1PBC (avr)): 86.3%
remaining activity at 100 µM (60 mV, 1PBC conc 100, read-out: relative current in 1PBC (avr)): 66.4%
log-fold IC50 (change of mutant vs WT) (80 mV): 1.991
IC50 (80 mV, 4 µM Ca2+): 192 µM
remaining activity at 10 µM (80 mV, 1PBC conc 10, read-out: relative current in 1PBC (avr)): 95.1%
remaining activity at 30 µM (80 mV, 1PBC conc 30, read-out: relative current in 1PBC (avr)): 87%
remaining activity at 100 µM (80 mV, 1PBC conc 100, read-out: relative current in 1PBC (avr)): 65.4%
IC50 (100 mV, 4 µM Ca2+): 197 µM
remaining activity at 10 µM (100 mV, 1PBC conc 10, read-out: relative current in 1PBC (avr)): 95.8%
remaining activity at 30 µM (100 mV, 1PBC conc 30, read-out: relative current in 1PBC (avr)): 87.5%
remaining activity at 100 µM (100 mV, 1PBC conc 100, read-out: relative current in 1PBC (avr)): 65.8%
IC50 (120 mV, 4 µM Ca2+): 198 µM
remaining activity at 10 µM (120 mV, 1PBC conc 10, read-out: relative current in 1PBC (avr)): 97.2%
remaining activity at 30 µM (120 mV, 1PBC conc 30, read-out: relative current in 1PBC (avr)): 88.7%
remaining activity at 100 µM (120 mV, 1PBC conc 100, read-out: relative current in 1PBC (avr)): 65%
IC50 (140 mV, 4 µM Ca2+): 196 µM
remaining activity at 10 µM (140 mV, 1PBC conc 10, read-out: relative current in 1PBC (avr)): 97.5%
remaining activity at 30 µM (140 mV, 1PBC conc 30, read-out: relative current in 1PBC (avr)): 89.1%
remaining activity at 100 µM (140 mV, 1PBC conc 100, read-out: relative current in 1PBC (avr)): 64.5%
IC50 (-20 mV, 4 µM Ca2+): 180 µM
remaining activity at 10 µM (-20 mV, 1PBC conc 10, read-out: relative current in 1PBC (avr)): 92.4%
remaining activity at 30 µM (-20 mV, 1PBC conc 30, read-out: relative current in 1PBC (avr)): 84.5%
remaining activity at 100 µM (-20 mV, 1PBC conc 100, read-out: relative current in 1PBC (avr)): 65.5%
IC50 (-40 mV, 4 µM Ca2+): 187 µM
remaining activity at 10 µM (-40 mV, 1PBC conc 10, read-out: relative current in 1PBC (avr)): 93.3%
remaining activity at 30 µM (-40 mV, 1PBC conc 30, read-out: relative current in 1PBC (avr)): 86.6%
remaining activity at 100 µM (-40 mV, 1PBC conc 100, read-out: relative current in 1PBC (avr)): 65.2%
IC50 (-60 mV, 4 µM Ca2+): 193 µM
remaining activity at 10 µM (-60 mV, 1PBC conc 10, read-out: relative current in 1PBC (avr)): 93.8%
remaining activity at 30 µM (-60 mV, 1PBC conc 30, read-out: relative current in 1PBC (avr)): 84.7%
remaining activity at 100 µM (-60 mV, 1PBC conc 100, read-out: relative current in 1PBC (avr)): 67.1%
IC50 (-80 mV, 4 µM Ca2+): 193 µM
remaining activity at 10 µM (-80 mV, 1PBC conc 10, read-out: relative current in 1PBC (avr)): 92.8%
remaining activity at 30 µM (-80 mV, 1PBC conc 30, read-out: relative current in 1PBC (avr)): 86.9%
remaining activity at 100 µM (-80 mV, 1PBC conc 100, read-out: relative current in 1PBC (avr)): 66.1%
IC50 (-100 mV, 4 µM Ca2+): 199 µM
remaining activity at 10 µM (-100 mV, 1PBC conc 10, read-out: relative current in 1PBC (avr)): 95.1%
remaining activity at 30 µM (-100 mV, 1PBC conc 30, read-out: relative current in 1PBC (avr)): 86.6%
remaining activity at 100 µM (-100 mV, 1PBC conc 100, read-out: relative current in 1PBC (avr)): 66.7%
IC50 (-120 mV, 4 µM Ca2+): 202 µM
remaining activity at 10 µM (-120 mV, 1PBC conc 10, read-out: relative current in 1PBC (avr)): 94.9%
remaining activity at 30 µM (-120 mV, 1PBC conc 30, read-out: relative current in 1PBC (avr)): 86.9%
remaining activity at 100 µM (-120 mV, 1PBC conc 100, read-out: relative current in 1PBC (avr)): 67%
IC50 (-140 mV, 4 µM Ca2+): 216 µM
remaining activity at 10 µM (-140 mV, 1PBC conc 10, read-out: relative current in 1PBC (avr)): 96.6%
remaining activity at 30 µM (-140 mV, 1PBC conc 30, read-out: relative current in 1PBC (avr)): 88.1%
remaining activity at 100 µM (-140 mV, 1PBC conc 100, read-out: relative current in 1PBC (avr)): 68%
IC50 (K603Q, V 0 mV): 193 µM
IC50 (K603Q, V 20 mV): 206 µM
IC50 (K603Q, V 40 mV): 190 µM
IC50 (K603Q, V 60 mV): 196 µM
IC50 (K603Q, V 80 mV): 192 µM
IC50 (K603Q, V 100 mV): 197 µM
IC50 (K603Q, V 120 mV): 198 µM
IC50 (K603Q, V 140 mV): 196 µM
IC50 (K603Q, V -20 mV): 180 µM
IC50 (K603Q, V -40 mV): 187 µM
IC50 (K603Q, V -60 mV): 193 µM
IC50 (K603Q, V -80 mV): 193 µM
IC50 (K603Q, V -100 mV): 199 µM
IC50 (K603Q, V -120 mV): 202 µM
IC50 (K603Q, V -140 mV): 216 µM
Lowering of the potency of block vs WT (Lys 603 to glutamine): about 100 fold
SMILES: N#Cc1c(C(F)(F)F)cc(O)n2c1nc1ccccc12 [1PBC]
